One experiment deals with Hep 3B2. The experiment in a line: cells. The following applies: Homo sapiens, Hep3B, 120 h.
For the next experiment, the system named is NCI-H1299. The experiment in a line: cells. The conditions noted are these: Homo sapiens, NCI-H1299, 120 h.
The subject of a further experiment is MDA-MB-453. The experiment can be described thus: cells. The conditions noted are these: Homo sapiens, MDA-MB-453, 120 h.
Experiment [1] has as its system BaF3. The experiment in a line: cells. The conditions noted are these: Mus musculus, BaF3, 72 h.
In experiment [2] the target is Fibroblast growth factor receptor 2 (Homo sapiens, UniProt P21802).
Description: Inhibition of FGFR2 (unknown orgin) using Tyr 04 peptide as substrate incubated for 1 hr in presence of 5 uM ATP by FRET based Z'-LYTE assay
Experiment [3] addresses Fibroblast growth factor receptor 3 (Homo sapiens, UniProt P22607).
Description: Inhibition of FGFR3 (unknown orgin) using Tyr 04 peptide as substrate incubated for 1 hr in presence of 75 uM ATP by FRET based Z'-LYTE assay
Experiment [4] relates to BaF3. The experiment in a line: Antiproliferative activity against mouse BAF3 cells expressing FGFR4 V550M mutant assessed as inhibition of cell growth incubated for 72 hrs by CCK8 assay. It is filed as functional, cell-based. The following applies: BaF3, 72 h.
The subject of a further experiment is Huh-7. The experiment in a line: Antiproliferative activity against human Huh-7 cells assessed as inhibition of cell growth incubated for 5 days by SRB assay. It is filed as functional, cell-based. The following applies: Huh-7, 120 h. In general terms: Sulforhodamine B stains cellular protein and so reports cell mass.
Experiment [5] concerns BaF3. The experiment can be described thus: cells. The conditions noted are these: Mus musculus, BaF3, 72 h. The source holds these as a separate data set.
In experiment [6] the test system is BaF3. The experiment in a line: Antiproliferative activity against mouse BAF3 cells assessed as inhibition of cell growth incubated for 72 hrs by CCK8 assay. Format: functional, cell-based. The conditions noted are these: BaF3, 72 h. A general note: Tetrazolium dyes change colour on reduction, which living cells bring about.
The target in experiment [7] is Fibroblast growth factor receptor 1 (Homo sapiens, UniProt P11362).
Description: Inhibition of FGFR1 (unknown orgin) using Tyr 04 peptide as substrate incubated for 1 hr in presence of 25 uM ATP by FRET based Z'-LYTE assay
Experiment [8] can be described thus: Antiproliferative activity against human JHH7 cells assessed as inhibition of cell growth incubated for 5 days by SRB assay. It is filed as functional, cell-based. The following applies: JHH7, 120 h.
Experiment [9] addresses Fibroblast growth factor receptor 4 (Homo sapiens, UniProt P22455). The experiment can be described thus: Inhibition of N-terminal 6His-tagged FGFR4 (unknown orgin) (445 to 753 residues) expressed in Rosetta (NEB) cells using Tyr 04 peptide as substrate incubated for 1 hr in presence of 150 uM ATP by FRET based Z'-LYTE assay.

The results in this text go back to ChEMBL document CHEMBL5154789 (J Med Chem, 2022).

Chain of Fibroblast growth factor receptor 3 (P22607 whole entry): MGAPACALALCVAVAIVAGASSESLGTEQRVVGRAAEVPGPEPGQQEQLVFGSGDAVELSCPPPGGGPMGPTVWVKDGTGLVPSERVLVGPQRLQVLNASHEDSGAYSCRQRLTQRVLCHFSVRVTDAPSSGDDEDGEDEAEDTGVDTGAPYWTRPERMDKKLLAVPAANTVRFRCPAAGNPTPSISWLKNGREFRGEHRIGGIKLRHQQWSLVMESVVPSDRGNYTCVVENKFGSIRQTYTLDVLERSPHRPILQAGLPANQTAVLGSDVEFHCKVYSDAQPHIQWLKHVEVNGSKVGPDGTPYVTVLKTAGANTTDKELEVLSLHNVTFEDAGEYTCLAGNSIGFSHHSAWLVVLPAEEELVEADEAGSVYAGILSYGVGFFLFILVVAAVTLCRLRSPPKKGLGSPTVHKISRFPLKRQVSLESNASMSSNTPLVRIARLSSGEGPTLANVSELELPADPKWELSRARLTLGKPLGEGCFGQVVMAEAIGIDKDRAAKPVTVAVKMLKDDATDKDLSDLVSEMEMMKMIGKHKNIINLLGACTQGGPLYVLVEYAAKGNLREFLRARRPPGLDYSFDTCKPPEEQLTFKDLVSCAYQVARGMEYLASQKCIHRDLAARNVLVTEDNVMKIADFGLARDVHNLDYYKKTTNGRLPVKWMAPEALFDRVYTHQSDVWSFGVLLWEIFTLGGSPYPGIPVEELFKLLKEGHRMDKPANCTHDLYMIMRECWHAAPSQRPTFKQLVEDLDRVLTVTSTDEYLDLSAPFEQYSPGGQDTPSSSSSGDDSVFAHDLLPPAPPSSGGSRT
Chain of Fibroblast growth factor receptor 1 (P11362 whole entry): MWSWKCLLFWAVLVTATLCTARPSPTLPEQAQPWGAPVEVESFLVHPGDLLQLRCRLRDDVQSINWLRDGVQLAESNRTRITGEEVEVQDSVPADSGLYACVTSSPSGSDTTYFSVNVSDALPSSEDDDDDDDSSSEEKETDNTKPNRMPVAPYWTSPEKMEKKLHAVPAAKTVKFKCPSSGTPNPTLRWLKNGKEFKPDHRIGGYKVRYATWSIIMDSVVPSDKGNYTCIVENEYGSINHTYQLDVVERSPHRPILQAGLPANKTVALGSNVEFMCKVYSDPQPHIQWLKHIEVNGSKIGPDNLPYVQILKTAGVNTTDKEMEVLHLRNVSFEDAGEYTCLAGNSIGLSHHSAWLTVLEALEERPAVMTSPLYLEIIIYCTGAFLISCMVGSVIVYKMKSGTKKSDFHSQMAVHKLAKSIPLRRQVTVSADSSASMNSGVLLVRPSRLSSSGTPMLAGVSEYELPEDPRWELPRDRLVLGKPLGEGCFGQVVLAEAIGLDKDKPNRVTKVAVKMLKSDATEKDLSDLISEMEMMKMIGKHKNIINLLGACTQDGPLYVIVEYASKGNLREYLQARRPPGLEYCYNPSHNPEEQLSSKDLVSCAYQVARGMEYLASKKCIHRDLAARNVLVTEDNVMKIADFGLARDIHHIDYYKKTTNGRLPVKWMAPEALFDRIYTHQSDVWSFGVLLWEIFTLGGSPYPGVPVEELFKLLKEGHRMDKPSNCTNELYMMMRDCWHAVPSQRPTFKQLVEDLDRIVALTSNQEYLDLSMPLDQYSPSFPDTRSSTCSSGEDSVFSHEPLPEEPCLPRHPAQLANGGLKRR
Chain of Fibroblast growth factor receptor 4 (P22455 whole entry, the tested form may be a part): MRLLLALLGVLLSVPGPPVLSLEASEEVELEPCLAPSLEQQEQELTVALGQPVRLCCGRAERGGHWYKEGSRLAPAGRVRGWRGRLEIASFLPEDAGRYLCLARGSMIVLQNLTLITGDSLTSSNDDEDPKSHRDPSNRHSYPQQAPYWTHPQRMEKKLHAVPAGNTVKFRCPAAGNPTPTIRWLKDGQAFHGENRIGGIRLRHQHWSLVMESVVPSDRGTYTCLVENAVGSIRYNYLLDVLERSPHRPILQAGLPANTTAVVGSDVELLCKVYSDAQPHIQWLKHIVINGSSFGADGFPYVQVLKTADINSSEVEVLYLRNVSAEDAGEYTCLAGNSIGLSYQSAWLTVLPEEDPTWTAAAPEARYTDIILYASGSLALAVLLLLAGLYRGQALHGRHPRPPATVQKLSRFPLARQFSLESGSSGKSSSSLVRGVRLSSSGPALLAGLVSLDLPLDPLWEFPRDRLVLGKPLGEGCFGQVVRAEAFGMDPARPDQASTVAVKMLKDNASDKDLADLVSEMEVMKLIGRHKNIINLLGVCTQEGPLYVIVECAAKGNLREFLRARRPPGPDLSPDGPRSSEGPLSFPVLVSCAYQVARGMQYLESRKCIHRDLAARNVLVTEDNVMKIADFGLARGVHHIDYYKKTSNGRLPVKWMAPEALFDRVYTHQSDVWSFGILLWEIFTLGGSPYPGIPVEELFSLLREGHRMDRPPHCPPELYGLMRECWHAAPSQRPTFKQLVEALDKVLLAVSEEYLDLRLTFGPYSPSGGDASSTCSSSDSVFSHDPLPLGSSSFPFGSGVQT
Chain of Fibroblast growth factor receptor 2 (P21802 whole entry): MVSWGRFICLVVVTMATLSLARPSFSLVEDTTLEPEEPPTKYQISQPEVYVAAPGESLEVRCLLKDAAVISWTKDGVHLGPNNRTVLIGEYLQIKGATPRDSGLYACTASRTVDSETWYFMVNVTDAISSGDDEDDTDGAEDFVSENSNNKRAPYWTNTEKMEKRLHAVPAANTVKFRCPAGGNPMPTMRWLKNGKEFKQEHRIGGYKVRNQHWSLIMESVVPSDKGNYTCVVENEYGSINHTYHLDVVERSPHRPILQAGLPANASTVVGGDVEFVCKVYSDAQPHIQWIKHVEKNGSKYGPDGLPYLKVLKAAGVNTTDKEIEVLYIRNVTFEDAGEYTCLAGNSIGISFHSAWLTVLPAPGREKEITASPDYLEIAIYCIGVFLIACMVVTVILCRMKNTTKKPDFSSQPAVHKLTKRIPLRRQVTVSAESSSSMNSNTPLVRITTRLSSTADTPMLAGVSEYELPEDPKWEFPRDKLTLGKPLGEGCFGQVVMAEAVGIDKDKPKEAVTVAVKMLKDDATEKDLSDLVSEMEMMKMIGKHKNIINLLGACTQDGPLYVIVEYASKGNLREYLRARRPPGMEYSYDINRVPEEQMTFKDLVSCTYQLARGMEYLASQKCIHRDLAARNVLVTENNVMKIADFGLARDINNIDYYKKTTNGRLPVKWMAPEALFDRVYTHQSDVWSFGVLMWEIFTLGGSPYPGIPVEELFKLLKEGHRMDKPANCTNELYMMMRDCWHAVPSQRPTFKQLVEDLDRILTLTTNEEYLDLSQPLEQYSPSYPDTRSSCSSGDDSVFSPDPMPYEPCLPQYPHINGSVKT
Description for Hep 3B2: Antiproliferative activity against human Hep3B cells assessed as inhibition of cell growth incubated for 5 days by SRB assay
Description for MDA-MB-453: Antiproliferative activity against human MDA-MB-453 cells assessed as inhibition of cell growth incubated for 5 days by SRB assay
Description for NCI-H1299: Antiproliferative activity against human NCI-H1299 cells assessed as inhibition of cell growth incubated for 5 days by SRB assay

For orientation: IC50 means the midpoint of a concentration-inhibition curve. Regarding `C=CC(=O)Nc1cccc(F)c1Nc1n[nH]c2ccc(O[C@H](C)c3c(Cl)cncc3Cl)cc12`, the half-inhibitory concentration (IC50) was 710 nM with Hep 3B2; 3.8 µM with NCI-H1299; 190 nM in the experiment with MDA-MB-453; 7.6 nM with BaF3 [1]; more than 10 µM in [2]; more than 10 µM in experiment [3].

`C=CC(=O)Nc1cc(N2CCN(C)CC2)cc(F)c1Nc1n[nH]c2ccc(O[C@H](C)c3c(Cl)cncc3Cl)cc12`: the IC50 was 18 nM with Hep 3B2; 3.7 nM in the experiment on BaF3 [4]; 96 nM in the experiment with Huh-7; 2.06 µM in the experiment on NCI-H1299; 18 nM with MDA-MB-453; 0.9 nM in the experiment with BaF3 [1]. For the same compound, the half-inhibitory concentration (IC50) in experiment [2] is more than 10 µM; in the experiment on BaF3 [5] it was 2.5 nM; in experiment [3], more than 10 µM; in the experiment on BaF3 [6], more than 1000 nM; in [7] it was more than 10 µM; in experiment [8] it was 28 nM.

`C=CC(=O)Nc1ccccc1Nc1n[nH]c2ccc(OC(C)c3c(Cl)cccc3Cl)cc12` (stereo unspecified): the IC50 in experiment [9], in experiment [2] and in experiment [3] was more than 10 µM throughout.

`C=CC(=O)Nc1cn(C)nc1Nc1n[nH]c2ccc(O[C@H](C)c3c(Cl)cncc3Cl)cc12`: the IC50 in [2] and in experiment [3] was more than 10 µM throughout.

Turning to `C=CC(=O)Nc1ccccc1Nc1n[nH]c2ccc(OC(C)c3c(Cl)ccc(F)c3Cl)cc12` (stereo unspecified), the IC50 in experiment [2] and in [3] was more than 10 µM throughout.

In turn, `C=CC(=O)Nc1ccccc1Nc1n[nH]c2ccc(O[C@H](C)c3c(Cl)cncc3Cl)cc12` registered an IC50 in experiment [2] of 0.949 µM.

Turning to `C=CC(=O)Nc1cc(N2CCOCC2)ccc1Nc1n[nH]c2ccc(O[C@H](C)c3c(Cl)cncc3Cl)cc12`, the IC50 is 730 nM with Hep 3B2; 5.31 µM in the experiment with NCI-H1299; 750 nM in the experiment with MDA-MB-453; 15 nM in the experiment on BaF3 [1]; more than 10 µM in [2]; more than 10 µM in experiment [3].

For `C=CC(=O)Nc1cc(N2CCC(N(C)C)CC2)cc(F)c1Nc1n[nH]c2ccc(O[C@H](C)c3c(Cl)cncc3Cl)cc12`, the IC50 in the experiment with Hep 3B2 is 50 nM; with NCI-H1299, 1.6 µM; in the experiment on MDA-MB-453, 7 nM; in the experiment with BaF3 [1], 1.5 nM; in experiment [2] it was more than 10 µM; in experiment [3], more than 10 µM. Further, the IC50 in experiment [7] is more than 10 µM.

With `C=CC(=O)Nc1cc(N2CCC(N3CCOCC3)CC2)ccc1Nc1n[nH]c2ccc(O[C@H](C)c3c(Cl)cncc3Cl)cc12`, the IC50 was 220 nM in the experiment with Hep 3B2; 3.36 µM in the experiment on NCI-H1299; 110 nM in the experiment with MDA-MB-453; 0.2 nM with BaF3 [1]; more than 10 µM in [2]; more than 10 µM in [3]. In experiment [7], this compound registered a half-maximal inhibitory concentration (IC50) of more than 10 µM.

Consider `C=CC(=O)Nc1ccccc1Nc1n[nH]c2ccc(OC(CC)c3c(Cl)cncc3Cl)cc12` (stereo unspecified), for which the IC50 in experiment [2] was more than 10 µM.

As to `C=CC(=O)N[C@H]1CCOC[C@H]1Nc1n[nH]c2ccc(O[C@H](C)c3c(Cl)cncc3Cl)cc12`, the IC50 in experiment [9], in [2] and in experiment [3] was more than 10 µM throughout.

As for `C=CC(=O)Nc1cc(N(C)CCOC)cc(F)c1Nc1n[nH]c2ccc(O[C@H](C)c3c(Cl)cncc3Cl)cc12`, the IC50 in the experiment with Hep 3B2 was 330 nM; in the experiment with NCI-H1299, 4.76 µM; in the experiment on MDA-MB-453 it was 210 nM; in the experiment on BaF3 [1], 20 nM; in [2], more than 10 µM; in [3] it was more than 10 µM.

As to `C=CC(=O)Nc1ccc(OC)cc1Nc1n[nH]c2ccc(O[C@H](C)c3c(Cl)cncc3Cl)cc12`, the IC50 with Hep 3B2 was 30200 nM; in experiment [9], more than 10 µM; with NCI-H1299, 12.5 µM; with MDA-MB-453, 15200 nM; in the experiment on BaF3 [1], 1990 nM; in experiment [2], more than 10 µM. The compound also yielded an IC50 in [3] of more than 10 µM.

Take `C=CC(=O)Nc1cc(N2CCOCC2)cc(F)c1Nc1n[nH]c2ccc(O[C@H](C)c3c(Cl)cncc3Cl)cc12`: the concentration for half-maximal inhibition (IC50) with Hep 3B2 was 220 nM; in the experiment with NCI-H1299 it was 3.76 µM; with MDA-MB-453 it was 64 nM; with BaF3 [1] it was 9.5 nM; in experiment [2] it was more than 10 µM; in experiment [3], more than 10 µM.

Take `C=CC(=O)N1CCC[C@@H](Nc2n[nH]c3ccc(O[C@H](C)c4c(Cl)cncc4Cl)cc23)C1`: the 50% inhibitory concentration (IC50) in experiment [9], in experiment [2] and in [3] was more than 10 µM each time.

Take `C=CC(=O)Nc1cccc(CC)c1Nc1n[nH]c2ccc(O[C@H](C)c3c(Cl)cncc3Cl)cc12`: the IC50 in the experiment with Hep 3B2 was 16300 nM; in experiment [9], more than 10 µM; in the experiment on NCI-H1299, 4.58 µM; in the experiment with MDA-MB-453 it was 7590 nM; in the experiment on BaF3 [1] it was more than 2000 nM; in experiment [2], more than 10 µM. In [3], this compound yielded an IC50 of more than 10 µM.

Take `C=CC(=O)Nc1cccc(OC)c1Nc1n[nH]c2ccc(O[C@H](C)c3c(Cl)cncc3Cl)cc12`: the IC50 was 10500 nM in the experiment on Hep 3B2; 4.88 µM in the experiment with NCI-H1299; 5190 nM with MDA-MB-453; 3560 nM in the experiment on BaF3 [1]; more than 10 µM in [2]; more than 10 µM in experiment [3].

As for `C=CC(=O)Nc1cc(N2CCN(C)CC2)ccc1Nc1n[nH]c2ccc(O[C@H](C)c3c(Cl)cncc3Cl)cc12`, the 50% inhibitory concentration (IC50) in the experiment with Hep 3B2 is 290 nM; in the experiment with NCI-H1299, 2.53 µM; with MDA-MB-453, 120 nM; with BaF3 [1], 6 nM; in [2] it was more than 10 µM; in experiment [3] it was more than 10 µM.

Turning to `C=CC(=O)Nc1ccccc1Nc1n[nH]c2ccc(OCc3c(Cl)cncc3Cl)cc12`, the IC50 in [2] was more than 10 µM.

In the case of `C=CC(=O)N[C@H]1CCCC[C@H]1Nc1n[nH]c2ccc(O[C@H](C)c3c(Cl)cncc3Cl)cc12`, the IC50 in experiment [9], in experiment [2] and in experiment [3] was more than 10 µM each time.

In the case of `C=CC(=O)Nc1cc(N2CCC(N3CCN(C)CC3)CC2)cc(F)c1Nc1n[nH]c2ccc(O[C@H](C)c3c(Cl)cncc3Cl)cc12`, the 50% inhibitory concentration (IC50) is 47 nM in the experiment with Hep 3B2; 1.58 µM in the experiment on NCI-H1299; 10 nM in the experiment on MDA-MB-453; 1.7 nM in the experiment with BaF3 [1]; more than 10 µM in experiment [2]; more than 10 µM in experiment [3]. The compound further yielded a concentration for half-maximal inhibition (IC50) in [7] of more than 10 µM.

On to `CCC(=O)Nc1ccccc1Nc1n[nH]c2ccc(O[C@H](C)c3c(Cl)cncc3Cl)cc12`, for which the IC50 in experiment [2] and in [3] was more than 10 µM each time.

For `C=CC(=O)Nc1cc(N2CCN(C3COC3)CC2)cc(F)c1Nc1n[nH]c2ccc(O[C@H](C)c3c(Cl)cncc3Cl)cc12`, the half-inhibitory concentration (IC50) in the experiment with Hep 3B2 was 51 nM; with NCI-H1299 it was 3 µM; with MDA-MB-453, 14 nM; in the experiment with BaF3 [1], 1.9 nM; in [2], more than 10 µM; in experiment [3] it was more than 10 µM. Besides, the IC50 in experiment [7] was more than 10 µM.

Take `C=CC(=O)N1CC[C@@H](Nc2n[nH]c3ccc(O[C@H](C)c4c(Cl)cncc4Cl)cc23)C1`: the half-inhibitory concentration (IC50) in experiment [2] and in [3] was more than 10 µM each time.

`C=CC(=O)Nc1cccc(Cl)c1Nc1n[nH]c2ccc(O[C@H](C)c3c(Cl)cncc3Cl)cc12`: the concentration for half-maximal inhibition (IC50) was 4440 nM in the experiment on Hep 3B2; 6.1 µM in the experiment on NCI-H1299; 570 nM with MDA-MB-453; 3 nM in the experiment with BaF3 [1]; more than 10 µM in [2]; more than 10 µM in experiment [3].

Turning to `C=CC(=O)Nc1cc(N2CCN(S(C)(=O)=O)CC2)cc(F)c1Nc1c[nH]c2ccc(O[C@H](C)c3c(Cl)cncc3Cl)cc12`, the half-maximal inhibitory concentration (IC50) in the experiment on Hep 3B2 is 110 nM; in the experiment on NCI-H1299, 2.76 µM; with MDA-MB-453 it was 33 nM; with BaF3 [1] it was 6.5 nM; in [2], more than 10 µM; in [3], more than 10 µM. In experiment [7], this compound showed a concentration for half-maximal inhibition (IC50) of more than 10 µM.

Turning to `C=CC(=O)Nc1ccccc1Nc1n[nH]c2cc(-c3c(Cl)c(OC)cc(OC)c3Cl)ccc12`, the IC50 in [9] is more than 10 µM; in [2], 4.77 µM.

As to `C=CC(=O)Nc1cccc(C)c1Nc1n[nH]c2ccc(O[C@H](C)c3c(Cl)cncc3Cl)cc12`, the IC50 in the experiment with Hep 3B2 is 2700 nM; with NCI-H1299, 9.12 µM; in the experiment on MDA-MB-453, 620 nM; in the experiment on BaF3 [1], 2 nM; in [2], more than 10 µM; in [3], more than 10 µM.

Take `C=CC(=O)Nc1cccc(C2CC2)c1Nc1n[nH]c2ccc(O[C@H](C)c3c(Cl)cncc3Cl)cc12`: the IC50 with Hep 3B2 is 15300 nM; in experiment [9], more than 10 µM; with NCI-H1299, 5.17 µM; with MDA-MB-453, 7550 nM; in the experiment with BaF3 [1] it was 520 nM; in experiment [2], more than 10 µM. For the same compound, the IC50 in experiment [3] is more than 10 µM.

With `C=CC(=O)Nc1cccc(Cl)c1Nc1ncc2cc(-c3c(Cl)c(OC)cc(OC)c3Cl)ccc2n1`, the IC50 with Hep 3B2 was 160 nM; with BaF3 [4], more than 100 nM; in the experiment on Huh-7, 48 nM; in the experiment with NCI-H1299, 1.07 µM; with MDA-MB-453, 62 nM; in the experiment on BaF3 [1], 2.4 nM. The half-inhibitory concentration (IC50) was 0.238 µM in experiment [2], more than 100 nM in the experiment on BaF3 [5], more than 1000 nM in the experiment on BaF3 [6] and 194 nM in [8].
